Source: the supplement of paper PMC11628255, “Interference of metal ions on the bioluminescent signal of firefly, Renilla, and NanoLuc luciferases in high-throughput screening assays” (Frontiers in Chemistry, 2024)
± gives the standard deviation of the averaged measurements.

Tests used:
Assay in all cases: normalised percent inhibition of luminescence (vs positive and negative controls); higher = stronger inhibition
[1] = tested on: NanoLuc luciferase (NLuc); conditions: screening conditions buffer
Protocol: (§1)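 Concentration-response (>=11 concentrations) of metal salts on purified FLuc, NLuc or RLuc luminescence in screening (SC) or 100 mM HEPES (H) buffer; salt pre-incubated with enzyme 10 min at RT, read 10 min after substrate. Normalised percent inhibition vs plate positive (PTC-124, isradipine, BTS) and DMSO negative controls; triplicate wells.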

[2] = tested on: Renilla luciferase (RLuc); conditions: screening conditions buffer
Protocol: as §1

[3] = tested on: firefly luciferase (FLuc)
Protocol: as §1

[4] = metal salt concentration 0.002 mM
[5] = metal salt concentration 0.005 mM
[6] = metal salt concentration 0.01 mM
[7] = metal salt concentration 0.02 mM
[8] = metal salt concentration 0.05 mM
[9] = metal salt concentration 0.1 mM
[10] = metal salt concentration 0.2 mM
[11] = metal salt concentration 0.5 mM
[12] = metal salt concentration 2.5 mM
[13] = metal salt concentration 0.0001 mM, 100 mM HEPES buffer
[14] = metal salt concentration 0.00025 mM, 100 mM HEPES buffer
[15] = metal salt concentration 0.0005 mM, 100 mM HEPES buffer
[16] = metal salt concentration 0.001 mM, 100 mM HEPES buffer
[17] = metal salt concentration 0.025 mM, 100 mM HEPES buffer
[18] = metal salt concentration 0.05 mM, 100 mM HEPES buffer
[19] = metal salt concentration 0.1 mM, 100 mM HEPES buffer
[20] = metal salt concentration 0.5 mM, 100 mM HEPES buffer
[21] = metal salt concentration 1 mM, 100 mM HEPES buffer
[22] = metal salt concentration 2.5 mM, 100 mM HEPES buffer
[23] = metal salt concentration 5 mM, 100 mM HEPES buffer

## O=[N+]([O-])[O-].O=[N+]([O-])[O-].[Pb+2] [lead(II) nitrate]
[1]; [4]
  normalised percent inhibition: -1.02 ± 11%
[1]; [5]
  normalised percent inhibition: -3.52 ± 6.5%
[1]; [6]
  normalised percent inhibition: -2.27 ± 14%
[1]; [7]
  normalised percent inhibition: -3.22 ± 1.7%
[1]; [8]
  normalised percent inhibition: -4.15 ± 10%
[1]; [9]
  normalised percent inhibition: -7.45 ± 3.5%
[1]; [10]
  normalised percent inhibition: 0.428 ± 2.1%
[1]; [11]
  normalised percent inhibition: 15.7 ± 8.1%
[1]; metal salt concentration 1 mM
  normalised percent inhibition: 11.5 ± 4.2%
[1]; [12]
  normalised percent inhibition: 52 ± 1.8%
[1]; metal salt concentration 5 mM
  normalised percent inhibition: 129 ± 28%
[2]; [4]
  normalised percent inhibition: -20.9 ± 12%
[2]; [5]
  normalised percent inhibition: -16.2 ± 4.1%
[2]; [6]
  normalised percent inhibition: -2.6 ± 1.9%
[2]; [7]
  normalised percent inhibition: -5.61 ± 4.4%
[2]; [8]
  normalised percent inhibition: -11.8 ± 16%
[2]; [9]
  normalised percent inhibition: -5.46 ± 3.8%
[2]; [10]
  normalised percent inhibition: -6.41 ± 12%
[2]; [11]
  normalised percent inhibition: -3.99 ± 7.6%
[2]; metal salt concentration 1 mM
  normalised percent inhibition: 2.9 ± 6.8%
[2]; [12]
  normalised percent inhibition: 53.3 ± 7.9%
[2]; metal salt concentration 5 mM
  normalised percent inhibition: 94.9 ± 7.4%
[3]; [13]
  normalised percent inhibition: -33.9 ± 8.6%
[3]; [14]
  normalised percent inhibition: -19.7 ± 5.7%
[3]; [15]
  normalised percent inhibition: -15.9 ± 13%
[3]; [16]
  normalised percent inhibition: -1.03 ± 17%
[3]; [17]
  normalised percent inhibition: 88.9 ± 6.3%
[3]; [18]
  normalised percent inhibition: 94.75 ± 0.83%
[3]; [19]
  normalised percent inhibition: 96.7 ± 1.3%
[3]; [20]
  normalised percent inhibition: 100.1 ± 0.72%
[3]; [21]
  normalised percent inhibition: 100.4 ± 0.27%
[3]; [22]
  normalised percent inhibition: 100.5 ± 0.16%
[3]; [23]
  normalised percent inhibition: 99.63 ± 0.56%

## O=[N+]([O-])[O-].O=[N+]([O-])[O-].O=[N+]([O-])[O-].[Ga+3] [gallium(III) nitrate]
[1]; [4]
  normalised percent inhibition: 3.99 ± 7.6%
[1]; [5]
  normalised percent inhibition: 6.69 ± 0.19%
[1]; [6]
  normalised percent inhibition: 2.43 ± 7.3%
[1]; [7]
  normalised percent inhibition: 4.43 ± 6.3%
[1]; [8]
  normalised percent inhibition: 6.6 ± 5.5%
[1]; [9]
  normalised percent inhibition: 7.81 ± 4.6%
[1]; [10]
  normalised percent inhibition: 8.25 ± 4.3%
[1]; [11]
  normalised percent inhibition: 12.8 ± 6.8%
[1]; metal salt concentration 1 mM
  normalised percent inhibition: 35 ± 6.8%
[1]; [12]
  normalised percent inhibition: 89.2 ± 38%
[1]; metal salt concentration 5 mM
  normalised percent inhibition: 120 ± 20%
[2]; [4]
  normalised percent inhibition: -6.33 ± 7.7%
[2]; [5]
  normalised percent inhibition: -7.44 ± 12%
[2]; [6]
  normalised percent inhibition: -4.58 ± 11%
[2]; [7]
  normalised percent inhibition: -6.17 ± 5.8%
[2]; [8]
  normalised percent inhibition: -6.25 ± 6.5%
[2]; [9]
  normalised percent inhibition: -7.99 ± 8.9%
[2]; [10]
  normalised percent inhibition: -8.55 ± 15%
[2]; [11]
  normalised percent inhibition: -5.45 ± 11%
[2]; metal salt concentration 1 mM
  normalised percent inhibition: -8.55 ± 3.7%
[2]; [12]
  normalised percent inhibition: -0.965 ± 7.9%
[2]; metal salt concentration 5 mM
  normalised percent inhibition: 71.8 ± 34%
[3]; [13]
  normalised percent inhibition: -32.2 ± 3.6%
[3]; metal salt concentration 0.0001 mM, screening conditions buffer
  normalised percent inhibition: 19.5 ± 2.5%
[3]; [14]
  normalised percent inhibition: -34.5 ± 6.7%
[3]; metal salt concentration 0.00025 mM, screening conditions buffer
  normalised percent inhibition: -10.2 ± 3%
[3]; [15]
  normalised percent inhibition: -31.8 ± 17%
[3]; metal salt concentration 0.0005 mM, screening conditions buffer
  normalised percent inhibition: 10 ± 8.8%
[3]; [16]
  normalised percent inhibition: -39.5 ± 9%
[3]; metal salt concentration 0.001 mM, screening conditions buffer
  normalised percent inhibition: -11.4 ± 3.9%
[3]; metal salt concentration 0.01 mM, 100 mM HEPES buffer
  normalised percent inhibition: 27.3 ± 10%
[3]; [17]
  normalised percent inhibition: 90.2 ± 6.4%
[3]; metal salt concentration 0.025 mM, screening conditions buffer
  normalised percent inhibition: -13.5 ± 3.7%
[3]; [18]
  normalised percent inhibition: 98.3 ± 1.3%
[3]; [19]
  normalised percent inhibition: 99.28 ± 0.83%
[3]; [20]
  normalised percent inhibition: 99.8 ± 1.2%
[3]; [21]
  normalised percent inhibition: 98.9 ± 1.4%
[3]; [22]
  normalised percent inhibition: 99.5 ± 1.1%
[3]; [23]
  normalised percent inhibition: 100.3 ± 0.68%

## O=[N+]([O-])[O-].O=[N+]([O-])[O-].[Zn+2] [zinc nitrate]
[1]; [4]
  normalised percent inhibition: 0.728 ± 3.3%
[1]; [5]
  normalised percent inhibition: -0.897 ± 5.4%
[1]; [6]
  normalised percent inhibition: 10.7 ± 4.8%
[1]; [7]
  normalised percent inhibition: 7.25 ± 7.2%
[1]; [8]
  normalised percent inhibition: 35.8 ± 7%
[1]; [9]
  normalised percent inhibition: 66 ± 15%
[1]; [10]
  normalised percent inhibition: 78.9 ± 2.5%
[1]; [11]
  normalised percent inhibition: 77 ± 14%
[1]; metal salt concentration 1 mM
  normalised percent inhibition: 89 ± 11%
[1]; [12]
  normalised percent inhibition: 111 ± 26%
[1]; metal salt concentration 5 mM
  normalised percent inhibition: 126 ± 30%
[2]; [4]
  normalised percent inhibition: -5.83 ± 5.5%
[2]; [5]
  normalised percent inhibition: -7.07 ± 11%
[2]; [6]
  normalised percent inhibition: -4.95 ± 6.5%
[2]; [7]
  normalised percent inhibition: -5.53 ± 0.89%
[2]; [8]
  normalised percent inhibition: -2.83 ± 13%
[2]; [9]
  normalised percent inhibition: -8.31 ± 7.2%
[2]; [10]
  normalised percent inhibition: -2.75 ± 4.6%
[2]; [11]
  normalised percent inhibition: -0.599 ± 11%
[2]; metal salt concentration 1 mM
  normalised percent inhibition: 8.71 ± 11%
[2]; [12]
  normalised percent inhibition: -1 ± 8.9%
[2]; metal salt concentration 5 mM
  normalised percent inhibition: 85.5 ± 9.5%
[3]; metal salt concentration 10 nM, 100 mM HEPES buffer
  normalised percent inhibition: 16.5 ± 1.9%
[3]; metal salt concentration 50 nM, 100 mM HEPES buffer
  normalised percent inhibition: -0.254 ± 9.7%
[3]; [13]
  normalised percent inhibition: -1.38 ± 27%
[3]; [14]
  normalised percent inhibition: 5.03 ± 18%
[3]; [15]
  normalised percent inhibition: 35.7 ± 11%
[3]; [16]
  normalised percent inhibition: 47.4 ± 13%
[3]; metal salt concentration 0.002 mM, screening conditions buffer
  normalised percent inhibition: 21.1 ± 28%
[3]; metal salt concentration 0.005 mM, screening conditions buffer
  normalised percent inhibition: 16.4 ± 15%
[3]; metal salt concentration 0.01 mM, screening conditions buffer
  normalised percent inhibition: 20.5 ± 20%
[3]; metal salt concentration 0.02 mM, screening conditions buffer
  normalised percent inhibition: 17.9 ± 15%
[3]; [17]
  normalised percent inhibition: 86.7 ± 4.5%
[3]; [18]
  normalised percent inhibition: 92.6 ± 3.1%
[3]; metal salt concentration 0.05 mM, screening conditions buffer
  normalised percent inhibition: 11.7 ± 13%
[3]; [19]
  normalised percent inhibition: 96.3 ± 1.4%
[3]; metal salt concentration 0.1 mM, screening conditions buffer
  normalised percent inhibition: 28.6 ± 18%
[3]; metal salt concentration 0.2 mM, screening conditions buffer
  normalised percent inhibition: 15 ± 18%
[3]; [20]
  normalised percent inhibition: 100.2 ± 0.33%
[3]; metal salt concentration 0.5 mM, screening conditions buffer
  normalised percent inhibition: 29.1 ± 5.4%
[3]; [21]
  normalised percent inhibition: 100.1 ± 0.51%
[3]; metal salt concentration 1 mM, screening conditions buffer
  normalised percent inhibition: 46.4 ± 13%
[3]; [22]
  normalised percent inhibition: 100.4 ± 0.27%
[3]; metal salt concentration 2.5 mM, screening conditions buffer
  normalised percent inhibition: 100.6 ± 1%
[3]; [23]
  normalised percent inhibition: 100.2 ± 0.31%
[3]; metal salt concentration 5 mM, screening conditions buffer
  normalised percent inhibition: 100.2 ± 0.28%
